The assay has as its target alkyladenine DNA glycosylase (AAG) (Homo sapiens, UniProt P29372). In words: TRES coupled AAG/APE1 activity assay at […]. It counts as biochemical. As to conditions: read-out: % inhibition at 10 μM.

alkyladenine DNA glycosylase (AAG), sequence (P29372 18-298): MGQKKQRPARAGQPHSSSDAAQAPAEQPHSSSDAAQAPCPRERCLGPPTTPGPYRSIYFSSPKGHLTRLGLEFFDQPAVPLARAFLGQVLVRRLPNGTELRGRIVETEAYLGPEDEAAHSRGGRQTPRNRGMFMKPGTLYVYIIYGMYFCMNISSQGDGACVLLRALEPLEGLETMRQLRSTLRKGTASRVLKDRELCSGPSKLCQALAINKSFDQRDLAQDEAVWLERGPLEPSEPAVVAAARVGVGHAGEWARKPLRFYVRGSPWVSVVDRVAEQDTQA

Consider `O=c1c(O)c(-c2ccc(O)cc2O)oc2cc(O)cc(O)c12` [morin], for which the inhibition at 10 µM is 77.5%.

Usually inhibition stands for the drop in the measured response relative to a control, in per cent.
